Data reported in PubChem BioAssay (NCI).
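The compound was tested at five concentrations on cells cultured in 96-well plates, with a 48-hour exposure period. GI50 is the concentration that inhibits growth by half. The concentration for full growth arrest is given as TGI.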

What follows are compounds tested on MDA-MB-435 (assay: DTP human tumour cell line panel, 48 h).

With `CCOc1cc(C(C)(C)C)ccc1C1=N[C@@](C)(c2ccc(Cl)cc2)[C@@](C)(c2ccc(Cl)cc2)N1C(=O)N1CCN(CCCS(C)(=O)=O)CC1` the GI50 was 5.21 µM.

Compound `CCOc1cc(C(C)(C)C)ccc1C1=N[C@@](C)(c2ccc(Cl)cc2)[C@@](C)(c2ccc(Cl)cc2)N1C(=O)N1CCN(CCCS(C)(=O)=O)CC1` has a TGI of 19.4 µM.

Each compound was assayed on SK-MEL-5 melanoma (assay: DTP human tumour cell line panel, 48 h).

Going from `CC1=C[C@H]2c3c(c(O)c(O)c4oc(-c5ccccc5)cc(=O)c34)[C@H](c3cc(O)c(O)c4oc(-c5ccccc5)cc(=O)c34)[C@H]2C(C)(C)C1` to `O=c1cc(NC2CCN(CCCc3ccccc3)CC2)c2cc(Cl)ccc2o1`, the GI50 rises from 0.974 µM to 12 µM (12-fold).

First: CC(=O)N[C@H]1CSSC[C@@H](C(N)=O)NC(=O)[C@H](C(C)C)NC(=O)[C@H](C)NC(=O)[C@H](Cc2cnc[nH]2)NC1=O
Second: Nc1nc(F)nc2c1ncn2C1OC(CO)C(O)C1O (stereo not given)
The GI50 of the first is higher: over 100 µM for the first, 39.7 µM for the second.

`CCn1c(SCc2ccc(C)cc2)nnc1-c1nn(-c2ccc(Cl)cc2Cl)c(-c2ccc(Cl)cc2)c1C` and `CCOc1cc(C(C)(C)C)ccc1C1=N[C@@](C)(c2ccc(Cl)cc2)[C@@](C)(c2ccc(Cl)cc2)N1C(=O)N1CCN(CCCS(C)(=O)=O)CC1` are within 1.5-fold of each other in GI50: 1.4 µM for the first, 1.63 µM for the second.

`Br[C](Br)(Br)[Hg][c]1ccccc1` showed a GI50 of 11.7 µM.

First: CC1=C[C@H]2c3c(c(O)c(O)c4oc(-c5ccccc5)cc(=O)c34)[C@H](c3cc(O)c(O)c4oc(-c5ccccc5)cc(=O)c34)[C@H]2C(C)(C)C1
Second: O=c1cc(NC2CCN(CCCc3ccccc3)CC2)c2cc(Cl)ccc2o1
The TGI of the first is 11-fold lower: 2.16 µM for the first, 24.4 µM for the second.

`CC(=O)N[C@H]1CSSC[C@@H](C(N)=O)NC(=O)[C@H](C(C)C)NC(=O)[C@H](C)NC(=O)[C@H](Cc2cnc[nH]2)NC1=O` and `Nc1nc(F)nc2c1ncn2C1OC(CO)C(O)C1O` (stereo not given) cannot be ordered by TGI: over 100 µM for the first, over 100 µM for the second.

`CCn1c(SCc2ccc(C)cc2)nnc1-c1nn(-c2ccc(Cl)cc2Cl)c(-c2ccc(Cl)cc2)c1C` and `CCOc1cc(C(C)(C)C)ccc1C1=N[C@@](C)(c2ccc(Cl)cc2)[C@@](C)(c2ccc(Cl)cc2)N1C(=O)N1CCN(CCCS(C)(=O)=O)CC1` are within 1.5-fold of each other in TGI: 2.74 µM for the first, 3.21 µM for the second.

`Br[C](Br)(Br)[Hg][c]1ccccc1` and `COc1ccc(CC2NCCc3cc(OC)c(OC)cc32)cc1Br` (stereo not given) are within 1.5-fold of each other in TGI: 24.8 µM for the first, 19.9 µM for the second.

The compounds below were run on SK-OV-3 ovarian (assay: DTP human tumour cell line panel, 48 h).

Going from `CC1=C[C@H]2c3c(c(O)c(O)c4oc(-c5ccccc5)cc(=O)c34)[C@H](c3cc(O)c(O)c4oc(-c5ccccc5)cc(=O)c34)[C@H]2C(C)(C)C1` to `O=c1cc(NC2CCN(CCCc3ccccc3)CC2)c2cc(Cl)ccc2o1`, the GI50 rises from 1.76 µM to 16.1 µM (9.1-fold).

First: CC(=O)N[C@H]1CSSC[C@@H](C(N)=O)NC(=O)[C@H](C(C)C)NC(=O)[C@H](C)NC(=O)[C@H](Cc2cnc[nH]2)NC1=O
Second: CCOc1cc(C(C)(C)C)ccc1C1=N[C@@](C)(c2ccc(Cl)cc2)[C@@](C)(c2ccc(Cl)cc2)N1C(=O)N1CCN(CCCS(C)(=O)=O)CC1
The GI50 of the first is higher: over 100 µM for the first, 14 µM for the second.

First: CCn1c(SCc2ccc(C)cc2)nnc1-c1nn(-c2ccc(Cl)cc2Cl)c(-c2ccc(Cl)cc2)c1C
Second: Br[C](Br)(Br)[Hg][c]1ccccc1
The GI50 of the first is 7.4-fold lower: 2.58 µM for the first, 19 µM for the second.

Going from `CC1=C[C@H]2c3c(c(O)c(O)c4oc(-c5ccccc5)cc(=O)c34)[C@H](c3cc(O)c(O)c4oc(-c5ccccc5)cc(=O)c34)[C@H]2C(C)(C)C1` to `O=c1cc(NC2CCN(CCCc3ccccc3)CC2)c2cc(Cl)ccc2o1`, the TGI rises from 10.9 µM to 29.8 µM (2.7-fold).

`CC(=O)N[C@H]1CSSC[C@@H](C(N)=O)NC(=O)[C@H](C(C)C)NC(=O)[C@H](C)NC(=O)[C@H](Cc2cnc[nH]2)NC1=O` and `Nc1nc(F)nc2c1ncn2C1OC(CO)C(O)C1O` (stereo not given) cannot be ordered by TGI: over 100 µM for the first, over 100 µM for the second.

First: CCn1c(SCc2ccc(C)cc2)nnc1-c1nn(-c2ccc(Cl)cc2Cl)c(-c2ccc(Cl)cc2)c1C
Second: CCOc1cc(C(C)(C)C)ccc1C1=N[C@@](C)(c2ccc(Cl)cc2)[C@@](C)(c2ccc(Cl)cc2)N1C(=O)N1CCN(CCCS(C)(=O)=O)CC1
The TGI of the first is 4-fold lower: 8.18 µM for the first, 32.9 µM for the second.

Going from `Br[C](Br)(Br)[Hg][c]1ccccc1` to `COc1ccc(CC2NCCc3cc(OC)c(OC)cc32)cc1Br` (stereo not given), the TGI rises from 33.1 µM to over 100 µM.

Each compound was assayed on SK-MEL-2 melanoma (assay: DTP human tumour cell line panel, 48 h).

Going from `CC1=C[C@H]2c3c(c(O)c(O)c4oc(-c5ccccc5)cc(=O)c34)[C@H](c3cc(O)c(O)c4oc(-c5ccccc5)cc(=O)c34)[C@H]2C(C)(C)C1` to `O=c1cc(NC2CCN(CCCc3ccccc3)CC2)c2cc(Cl)ccc2o1`, the GI50 rises from 1.77 µM to 18.4 µM (10-fold).

First: CC(=O)N[C@H]1CSSC[C@@H](C(N)=O)NC(=O)[C@H](C(C)C)NC(=O)[C@H](C)NC(=O)[C@H](Cc2cnc[nH]2)NC1=O
Second: CCOc1cc(C(C)(C)C)ccc1C1=N[C@@](C)(c2ccc(Cl)cc2)[C@@](C)(c2ccc(Cl)cc2)N1C(=O)N1CCN(CCCS(C)(=O)=O)CC1
The GI50 of the first is higher: over 100 µM for the first, 9.14 µM for the second.

Compared with `CCn1c(SCc2ccc(C)cc2)nnc1-c1nn(-c2ccc(Cl)cc2Cl)c(-c2ccc(Cl)cc2)c1C`, `Br[C](Br)(Br)[Hg][c]1ccccc1` is 5.9-fold higher in GI50: 3.01 µM for the first, 17.8 µM for the second.

First: CC1=C[C@H]2c3c(c(O)c(O)c4oc(-c5ccccc5)cc(=O)c34)[C@H](c3cc(O)c(O)c4oc(-c5ccccc5)cc(=O)c34)[C@H]2C(C)(C)C1
Second: O=c1cc(NC2CCN(CCCc3ccccc3)CC2)c2cc(Cl)ccc2o1
The TGI of the first is 3.4-fold lower: 9.61 µM for the first, 33.1 µM for the second.

`CC(=O)N[C@H]1CSSC[C@@H](C(N)=O)NC(=O)[C@H](C(C)C)NC(=O)[C@H](C)NC(=O)[C@H](Cc2cnc[nH]2)NC1=O` and `Nc1nc(F)nc2c1ncn2C1OC(CO)C(O)C1O` (stereo not given) cannot be ordered by TGI: over 100 µM for the first, over 100 µM for the second.

Compared with `CCn1c(SCc2ccc(C)cc2)nnc1-c1nn(-c2ccc(Cl)cc2Cl)c(-c2ccc(Cl)cc2)c1C`, `CCOc1cc(C(C)(C)C)ccc1C1=N[C@@](C)(c2ccc(Cl)cc2)[C@@](C)(c2ccc(Cl)cc2)N1C(=O)N1CCN(CCCS(C)(=O)=O)CC1` is 2.4-fold higher in TGI: 12.5 µM for the first, 30 µM for the second.

First: Br[C](Br)(Br)[Hg][c]1ccccc1
Second: COc1ccc(CC2NCCc3cc(OC)c(OC)cc32)cc1Br (stereo not given)
The TGI of the first is 1.9-fold lower: 32 µM for the first, 61.6 µM for the second.

What follows are compounds tested on COLO 205 colon (assay: DTP human tumour cell line panel, 48 h).

Compared with `CC1=C[C@H]2c3c(c(O)c(O)c4oc(-c5ccccc5)cc(=O)c34)[C@H](c3cc(O)c(O)c4oc(-c5ccccc5)cc(=O)c34)[C@H]2C(C)(C)C1`, `O=c1cc(NC2CCN(CCCc3ccccc3)CC2)c2cc(Cl)ccc2o1` is 6.7-fold higher in GI50: 1.48 µM for the first, 9.98 µM for the second.

Going from `CC(=O)N[C@H]1CSSC[C@@H](C(N)=O)NC(=O)[C@H](C(C)C)NC(=O)[C@H](C)NC(=O)[C@H](Cc2cnc[nH]2)NC1=O` to `Nc1nc(F)nc2c1ncn2C1OC(CO)C(O)C1O` (stereo not given), the GI50 falls from over 100 µM to 27.8 µM.

Going from `CCn1c(SCc2ccc(C)cc2)nnc1-c1nn(-c2ccc(Cl)cc2Cl)c(-c2ccc(Cl)cc2)c1C` to `CCOc1cc(C(C)(C)C)ccc1C1=N[C@@](C)(c2ccc(Cl)cc2)[C@@](C)(c2ccc(Cl)cc2)N1C(=O)N1CCN(CCCS(C)(=O)=O)CC1`, the GI50 rises from 1.51 µM to 9.53 µM (6.3-fold).

`Br[C](Br)(Br)[Hg][c]1ccccc1` gave a GI50 of 4.55 µM.

Going from `CC1=C[C@H]2c3c(c(O)c(O)c4oc(-c5ccccc5)cc(=O)c34)[C@H](c3cc(O)c(O)c4oc(-c5ccccc5)cc(=O)c34)[C@H]2C(C)(C)C1` to `O=c1cc(NC2CCN(CCCc3ccccc3)CC2)c2cc(Cl)ccc2o1`, the TGI rises from 11.6 µM to 23.2 µM (2-fold).

`CC(=O)N[C@H]1CSSC[C@@H](C(N)=O)NC(=O)[C@H](C(C)C)NC(=O)[C@H](C)NC(=O)[C@H](Cc2cnc[nH]2)NC1=O` and `Nc1nc(F)nc2c1ncn2C1OC(CO)C(O)C1O` (stereo not given) cannot be ordered by TGI: over 100 µM for the first, over 100 µM for the second.

Going from `CCn1c(SCc2ccc(C)cc2)nnc1-c1nn(-c2ccc(Cl)cc2Cl)c(-c2ccc(Cl)cc2)c1C` to `CCOc1cc(C(C)(C)C)ccc1C1=N[C@@](C)(c2ccc(Cl)cc2)[C@@](C)(c2ccc(Cl)cc2)N1C(=O)N1CCN(CCCS(C)(=O)=O)CC1`, the TGI rises from 3.39 µM to 32.6 µM (9.6-fold).

Compared with `Br[C](Br)(Br)[Hg][c]1ccccc1`, `COc1ccc(CC2NCCc3cc(OC)c(OC)cc32)cc1Br` (stereo not given) is 2-fold higher in TGI: 16.2 µM for the first, 32.6 µM for the second.

These compounds were tested on CCRF-CEM leukemia (assay: DTP human tumour cell line panel, 48 h).

Going from `CC1=C[C@H]2c3c(c(O)c(O)c4oc(-c5ccccc5)cc(=O)c34)[C@H](c3cc(O)c(O)c4oc(-c5ccccc5)cc(=O)c34)[C@H]2C(C)(C)C1` to `O=c1cc(NC2CCN(CCCc3ccccc3)CC2)c2cc(Cl)ccc2o1`, the GI50 rises from 0.67 µM to 18.2 µM (27-fold).

Compared with `CC(=O)N[C@H]1CSSC[C@@H](C(N)=O)NC(=O)[C@H](C(C)C)NC(=O)[C@H](C)NC(=O)[C@H](Cc2cnc[nH]2)NC1=O`, `Nc1nc(F)nc2c1ncn2C1OC(CO)C(O)C1O` (stereo not given) is 24-fold lower in GI50: 29.1 µM for the first, 1.21 µM for the second.

First: CCn1c(SCc2ccc(C)cc2)nnc1-c1nn(-c2ccc(Cl)cc2Cl)c(-c2ccc(Cl)cc2)c1C
Second: CCOc1cc(C(C)(C)C)ccc1C1=N[C@@](C)(c2ccc(Cl)cc2)[C@@](C)(c2ccc(Cl)cc2)N1C(=O)N1CCN(CCCS(C)(=O)=O)CC1
The GI50 of the first is 1.6-fold lower: 2.51 µM for the first, 4.1 µM for the second.

`Br[C](Br)(Br)[Hg][c]1ccccc1` gave a GI50 of 1.49 µM.

`CC1=C[C@H]2c3c(c(O)c(O)c4oc(-c5ccccc5)cc(=O)c34)[C@H](c3cc(O)c(O)c4oc(-c5ccccc5)cc(=O)c34)[C@H]2C(C)(C)C1` and `O=c1cc(NC2CCN(CCCc3ccccc3)CC2)c2cc(Cl)ccc2o1` cannot be ordered by TGI: over 75 µM for the first, 79.3 µM for the second.

`CC(=O)N[C@H]1CSSC[C@@H](C(N)=O)NC(=O)[C@H](C(C)C)NC(=O)[C@H](C)NC(=O)[C@H](Cc2cnc[nH]2)NC1=O` and `Nc1nc(F)nc2c1ncn2C1OC(CO)C(O)C1O` (stereo not given) cannot be ordered by TGI: over 100 µM for the first, over 77 µM for the second.

First: CCn1c(SCc2ccc(C)cc2)nnc1-c1nn(-c2ccc(Cl)cc2Cl)c(-c2ccc(Cl)cc2)c1C
Second: CCOc1cc(C(C)(C)C)ccc1C1=N[C@@](C)(c2ccc(Cl)cc2)[C@@](C)(c2ccc(Cl)cc2)N1C(=O)N1CCN(CCCS(C)(=O)=O)CC1
The TGI of the first is lower: 13.5 µM for the first, over 100 µM for the second.

Going from `Br[C](Br)(Br)[Hg][c]1ccccc1` to `COc1ccc(CC2NCCc3cc(OC)c(OC)cc32)cc1Br` (stereo not given), the TGI rises from 9.13 µM to over 85.3 µM.
